# Results from a melting point compilation (Tetko et al.).
row,melting point [°C],Compound
1,146 to 148,CC(=O)N1CCCC(C(N)=O)C1 (stereo unspecified)
2,173 to 175,COC(=O)COc1c(C)cc(C(=O)O)cc1C
3,61 to 63,Clc1cc(SCc2ccccc2)ccn1
4,119 to 121,CCCOc1cn(-c2ccccc2)nc1C(=O)O
5,74 to 76,COc1cc(C)c(C(C)=O)cc1C
6,155 to 157,Cc1nc(CSCC(=O)O)cs1
7,189 to 191,N#Cc1cnc(-c2ccccc2)nc1
8,127 to 129,Nc1cccc(S(=O)(=O)Nc2ccccc2)c1
9,210 to 212,Cc1cc(Cl)n2c(nc3ccccc32)c1C#N
10,151 to 153,O=c1[nH]nnn1-c1cccs1
11,96 to 98,CS(=O)(=O)Nc1ccccc1I
12,179 to 181,Nc1noc(-c2ccoc2)n1
13,233 to 235,Cc1[nH]cnc1CO
14,169 to 171,O=C(O)c1cncs1
15,146 to 150,CN(C)S(=O)(=O)c1cccc(C(=O)O)c1
16,90 to 92,Cc1c(NC(C)C(C)C)cccc1C(=O)O (stereo unspecified)
17,227 to 229,CC(Cl)C(=O)Nc1ccc(NC(=O)c2cccs2)cc1 (stereo unspecified)
18,190 to 192,COc1ccc(-c2cc(C(=O)O)n(-c3ccccc3)n2)cc1
19,130 to 138,O=[N+]([O-])c1ccc(Cl)c2cccnc12
20,201 to 203,COC(=O)c1ccc(N)c([N+](=O)[O-])c1
21,187 to 189,O=C(O)c1ccc(Br)cc1Oc1ccc(F)cc1
22,105 to 107,CNS(=O)(=O)c1cc(Br)ccc1C
23,45 to 47,COC(=O)CNc1ccccc1
24,171 to 173,Cc1ccc(S(=O)(=O)NC(CCC(N)=O)C(=O)O)cc1C (stereo unspecified)
25,96 to 98,CC(CC(=O)c1cccc(F)c1)C(=O)O (stereo unspecified)
26,68 to 70,ClCCc1ncc(-c2ccccc2)o1

row,melting point [°C],Compound
1,103 to 105,CC1(C)CCc2[nH]c3ccccc3c2C1
2,87 to 89,Nc1cccc(CN2CCSCC2)c1
3,54 to 56,CC(=O)OCc1ccc(Cl)cc1C#N
4,249 to 251,CN(C)c1ccc(-n2ccnc2S)cc1
5,214 to 216,Nc1ccc(C(=O)O)nc1Cl
6,78 to 80,OC(CNCc1ccccc1)c1ccsc1 (stereo unspecified)
7,132 to 134,Nc1ccc(Oc2ncccn2)cc1
8,37 to 39,CCC(=O)Cc1ccc(Cl)cc1Cl
9,100 to 102,CSc1noc(N)n1
10,140 to 142,CC(=O)c1ccc(S(=O)(=O)NCCCC(=O)O)cc1
11,261 to 263,NN=C1C(=O)Nc2c(Cl)cc(Cl)cc21
12,81 to 83,O=C(OCc1ccccc1)N1CCCC(CS(=O)(=O)Cl)C1 (stereo unspecified)
13,114 to 116,CC(Sc1ccc([N+](=O)[O-])cc1)C(=O)O (stereo unspecified)
14,109 to 111,CCOC(=O)c1cnn(CCC#N)c1N
15,44 to 46,O=S(=O)(Cl)c1ccc2c(c1)CCCC2
16,48 to 50,CC1(C)CC(=O)c2cc(Br)cc(Cl)c2O1
17,149 to 151,CC(=O)c1ccc(S(=O)(=O)NCc2ccc(F)cc2)cc1
18,97 to 99,O=S(=O)(NC1CCCC1)c1ccc(Cl)nc1
19,42 to 44,CC(=O)c1ccc(OC(C)C)cc1
20,52 to 54,COc1ccc(C(C)C(=O)O)cc1 (stereo unspecified)
21,62 to 65,O=C(Nc1ccccc1)OCC(F)(F)F
22,149 to 151,Cc1cc(F)ccc1-n1cc(O)c(C(=O)O)n1
23,105 to 107,O=C1CCCCC1N1CCS(=O)(=O)CC1 (stereo unspecified)
24,225 to 227,O=C(O)c1ccccc1NS(=O)(=O)c1ccc2[nH]c(=O)[nH]c2c1
25,214 to 216,O=C(O)C(c1ccc(Br)cc1)N1CCCC1 (stereo unspecified)
26,217 to 219,CC(=O)c1ccc2c(c1)CC(=O)N2

row,melting point [°C],Compound
1,220 to 222,O=C(O)Cc1cc2c(cc1Br)OCCO2
2,97 to 99,COc1ccc(CNC(=O)C(C)Cl)cc1OC (stereo unspecified)
3,136 to 140,Nc1ccnn1Cc1cccc2ccccc12
4,77 to 79,CCOC(=O)c1csc(CC#N)n1
5,223 to 225,NC(=S)Nc1cccc2ncccc12
6,83 to 85,CCC(C)Oc1ccccc1C=CC(=O)O (stereo unspecified)
7,43 to 45,Cc1cc([N+](=O)[O-])c(Cl)cc1F
8,50 to 52,O=C(Nc1cccc(F)c1)OCC(F)(F)F
9,90 to 92,C=CS(=O)(=O)c1cc(F)cc([N+](=O)[O-])c1
10,125 to 127,Oc1cccc(CNC2CC2)c1
11,69 to 71,N=C1NCCO1
12,77 to 79,O=C(c1cccnc1Cl)N1CCCC1
13,203 to 205,O=C(O)c1occc1CN1C(=O)Cc2ccccc21
14,192 to 194,O=C(O)Cn1ccc2cc([N+](=O)[O-])ccc21
15,128 to 132,O=C(O)c1cc(Cl)cc(Cl)c1OC(F)F
16,79 to 81,CC1(c2ccccc2)CC(=O)NC1=O (stereo unspecified)
17,131 to 133,Cc1c(N)cccc1-c1nc2cc(F)ccc2n1C1CC1
18,267 to 269,O=C1NC(=O)C2(CCCc3sccc32)N1 (stereo unspecified)
19,175 to 177,Cc1cn(CC(=O)O)c2ccccc12
20,45 to 47,Cc1cccc(F)c1C#N
21,49 to 51,CCC(CC)(CN)NC(=O)OC(C)(C)C
22,79 to 81,Brc1cccc2cnoc12
23,332 to 334,O=c1[nH]c2cc(F)c(F)cc2[nH]1
24,58 to 60,O=C(O)c1ccccc1N1CCOCC1
25,192 to 194,CC(C)NC(=O)Nc1ccc(O)c(C(=O)O)c1
26,79 to 81,N#CCOc1ccccc1C=O

# Continued, molecule first:
row,Compound,melting point [°C]
1,CCOc1cc(Br)c(CC#N)cc1OCC,68 to 70
2,Cn1c(S)nc2sc3c(c2c1=O)CCCC3,304 to 306
3,O=C(O)c1cc(S(=O)(=O)NCCOc2ccccc2)ccc1Cl,169 to 171
4,O=C(Nc1cccc(Cl)c1)OCC(F)(F)F,35 to 37
5,Cc1ccccc1Sc1ccc(C(=O)O)cc1,178 to 180
6,O=C(O)C1CC(=O)N(c2ccccc2)C1 (stereo unspecified),191 to 193
7,Cc1nc2ccccc2n1CCO,147 to 149
8,CCOC(=O)C1CCCN1S(N)(=O)=O (stereo unspecified),123 to 125
9,Cc1nc(O)nc(C)c1CC(=O)O,271 to 273
10,CC(O)(C(=O)O)C1CC1 (stereo unspecified),39 to 41
11,CC1CC(C)CN(S(=O)(=O)c2ccc(N)cc2)C1 (stereo unspecified),157 to 159
12,O=C(O)C1CCCN1C(=O)Nc1ccc(F)cc1 (stereo unspecified),163 to 165
13,O=C(O)C1CCN(c2ccccc2[N+](=O)[O-])CC1,158 to 160
14,CCOC(=O)CS(=O)(=O)Cc1ccccc1,49 to 51
15,O=[N+]([O-])c1ccc(S(=O)(=O)Cl)cc1Br,59 to 61
16,CC(C)CN1CCC(C(=O)O)CC1,75 to 77
17,O=C(O)CSc1ccccc1F,80 to 82
18,CC(=O)c1ccc(F)cc1N(C)C,57 to 59
19,CC(Sc1ccc(C#N)cc1)C(=O)O (stereo unspecified),114 to 116
20,Cc1cc(S(N)(=O)=O)c(F)cc1F,97 to 99
21,O=C(O)c1ccc(=O)n(-c2ccccc2F)c1,249 to 251
22,CNC(=O)NC(=O)CCl,155 to 157
23,O=C(O)C1CCCN(S(=O)(=O)Cc2ccccc2)C1 (stereo unspecified),128 to 130

row,Compound,melting point [°C]
1,NCCCNC(=O)c1cccc(Br)c1,52 to 54
2,O=C(O)c1ccc(S(=O)(=O)N2CCOCC2)cc1,287 to 289
3,O=C(O)c1ccc(F)c2ccsc12,230 to 232
4,COc1ccc(O)c(C(C)N)c1 (stereo unspecified),123 to 125
5,CCS(=O)(=O)c1ccc(CCC(=O)O)cc1,119 to 121
6,c1ccc(C2COCCN2)cc1 (stereo unspecified),74 to 76
7,OCc1nc2ccccc2o1,59 to 61
8,CCOC(=O)c1c(N)c(C#N)cn1CCOC,99 to 101
9,Nc1cc(NC(=O)c2ccccc2I)ccc1F,202 to 204
10,O=C(O)C1CC(=O)N(c2ccccc2Br)C1 (stereo unspecified),177 to 179
11,O=[N+]([O-])c1ccn(C2CCCCC2O)n1 (stereo unspecified),94 to 96
12,O=C(O)C(O)C1CC1 (stereo unspecified),66 to 68
13,Cc1c(C(=O)O)cnn1-c1ccc(Br)cc1,211 to 213
14,CC(C)C(=O)NC1(C#N)CCCC1,56 to 58
15,CCOc1ccc(C(C)=O)cc1OCC,49 to 51
16,COc1ccc(S(N)(=O)=O)c(OC)c1C(=O)O,151 to 153
17,CCn1nnnc1S,18 to 20
18,COc1ccc2c(c1)C=C(C#N)CO2,72 to 74
19,CCOC(=O)c1cnc2c(cnn2C)c1Cl,83 to 85
20,CC(Cl)C(=O)N1CCN(c2ncccn2)CC1 (stereo unspecified),96 to 98
21,O=C(O)c1ccccc1N1CCCCC1,59 to 61
22,COC(=O)c1ccc(OCC2CO2)cc1 (stereo unspecified),59 to 61
23,CC(C)(C)C(Br)C(=O)O (stereo unspecified),62 to 64

row,Compound,melting point [°C]
1,O=C(Nc1sc2ccccc2c1Cl)OCC(F)(F)F,95 to 97
2,Nc1ccc(S(=O)(=O)Nc2cccc(F)c2)cc1,168 to 170
3,COC(=O)c1ccc(N)cc1F,109 to 111
4,COc1cc(C=O)c(Br)cc1O,175 to 177
5,O=Cc1csc(-c2ccc(F)cc2)n1,99 to 101
6,N#CC(C(=O)N1CCCCC1)c1ccc(C(F)(F)F)cn1 (stereo unspecified),137 to 139
7,O=C1NC(=O)C(c2cccc(Br)c2)N1 (stereo unspecified),185 to 187
8,O=C(O)c1cnoc1-c1ccco1,195 to 197
9,O=C(O)C1CCN1Cc1ccccc1 (stereo unspecified),176 to 178
10,COc1ccccc1CNC(N)=O,124 to 126
11,Clc1ccc(Br)cc1CBr,71 to 73
12,CCN(CC)S(=O)(=O)c1ccc(O)c(C(=O)O)c1,129 to 131
13,FC(F)(F)c1ccc2nnc(C3CCCNC3)n2c1 (stereo unspecified),226 to 228
14,O=[N+]([O-])C=Cc1ccc(SC(F)(F)F)cc1,136 to 138
15,O=C(Nc1ccccc1C(=O)O)c1cccc(Br)c1,189 to 191
16,O=C(O)CNC(=O)c1ccsc1,176 to 178
17,O=C(O)C=C1CCOCC1,99 to 101
18,CCOC(=O)c1nc2c(s1)NCCCC2,144 to 146
19,Cc1cc(C(=O)O)c(C)n1CC1CC1,179 to 181
20,Nc1nonc1-c1ccc(Br)cc1,141 to 143
21,C=CCN(c1ccccc1)S(=O)(=O)c1cccc(C(=O)O)c1,103 to 105
22,CCCCS(=O)(=O)NCC(=O)O,65 to 67
